Seven molecules from patent US11667602B2, “Compounds and their use” (AstraZeneca AB, priority 2020, dated 2023) can be followed below.

Converted amounts (≈) assume the structure as drawn.

Series [1] in a line: Solubility (Test F). Type of series: physicochemical. Conditions: arithmetic mean if run multiple times. The method, then: The assay was conducted according to the Solubility Assay described in pages 164-167 of Wernevik, J. et al., “A Fully Integrated Assay Panel for Early Drug Metabolism and Pharmacokinetics Profiling”, Assay and Drug Development Technologies, 2020, 18(4), 157-179. Data are reported in Table 36 as solubility ([…]. Where the assay was run multiple times for the same compound, the arithmetic mean is reported.

The nature of series [2]: Human Plasma Protein Binding (Test B). It counts as in vitro ADME. Conditions: fraction unbound (fu). The method, then: Human Plasma Protein Binding (Test B)
The assay was conducted according to the Human Plasma Protein Binding Assay described in pages 167-170 of Wernevik, J. et al., “A Fully Integrated Assay Panel for Early Drug Metabolism and Pharmacokinetics Profiling”, Assay and Drug Development Technologies, 2020, 18(4), 157-179. Data are reported in Table 36 as fraction unbound (fu) (% free). Where the assay was run multiple times for the same compound, the arithmetic mean is reported.

Series [3] is described as follows: Human Liver Microsomal Stability (Test C). Type of series: in vitro ADME. Conditions: human, liver microsomes. The method, then: Human Liver Microsomal Stability (Test C)
The assay was conducted according to the Human Liver Microsome Stability Assay described in pages 170-174 of Wernevik, J. et al., “A Fully Integrated Assay Panel for Early Drug Metabolism and Pharmacokinetics Profiling”, Assay and Drug Development Technologies, 2020, 18(4), 157-179. Data are reported in Table 36 as CLint (μl/min/mg protein). Where the assay was run multiple times for the same compound, the arithmetic mean is reported.

Series [4] can be described thus: Rat Hepatocyte Stability (Test E). It counts as in vitro ADME. Conditions: rat, hepatocytes, geometric mean if run multiple times. The method, then: Rat Hepatocyte Stability (Test E)
The assay was conducted according to the Rat Hepatocyte Stability Assay described in pages 170-174 of Wernevik, J. et al., “A Fully Integrated Assay Panel for Early Drug Metabolism and Pharmacokinetics Profiling”, Assay and Drug Development Technologies, 2020, 18(4), 157-179. Data are reported in Table 36 as mean Clint(μl/min/10^6 cells). Where the assay was run multiple times for the same compound, the geometric mean is reported.

For series [5], the target named is T1, human RXFP1 (Homo sapiens, UniProt Q9HBX9).
T1 sequence (Q9HBX9 1-757): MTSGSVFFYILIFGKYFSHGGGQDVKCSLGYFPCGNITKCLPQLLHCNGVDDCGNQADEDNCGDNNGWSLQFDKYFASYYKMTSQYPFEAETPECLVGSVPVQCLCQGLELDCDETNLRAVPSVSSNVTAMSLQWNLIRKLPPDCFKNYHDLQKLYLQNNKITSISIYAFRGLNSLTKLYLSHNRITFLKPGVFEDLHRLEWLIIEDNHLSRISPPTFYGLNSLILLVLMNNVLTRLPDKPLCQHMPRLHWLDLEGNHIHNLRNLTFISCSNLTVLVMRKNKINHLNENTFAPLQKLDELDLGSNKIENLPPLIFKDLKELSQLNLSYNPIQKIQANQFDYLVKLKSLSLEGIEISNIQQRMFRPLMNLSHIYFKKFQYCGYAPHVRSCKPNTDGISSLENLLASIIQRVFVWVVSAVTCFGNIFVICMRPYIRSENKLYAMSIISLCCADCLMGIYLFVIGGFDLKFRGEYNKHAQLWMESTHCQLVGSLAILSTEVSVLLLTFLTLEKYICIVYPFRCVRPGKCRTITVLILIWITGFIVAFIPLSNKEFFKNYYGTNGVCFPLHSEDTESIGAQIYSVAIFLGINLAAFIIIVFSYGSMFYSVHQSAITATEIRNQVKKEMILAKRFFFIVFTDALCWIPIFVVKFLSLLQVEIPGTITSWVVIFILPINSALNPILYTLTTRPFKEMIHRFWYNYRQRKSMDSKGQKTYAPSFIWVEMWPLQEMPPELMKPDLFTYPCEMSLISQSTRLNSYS
As to the kind of experiment: RXFP1 Hu cAMP (Test A). More on the design: expressed in transfected cells; host or cells: Jump-In T-REx CHO-K1 cells (ThermoFisher), induced with 10 ng/ml doxycycline for 24 h. The settings on record: RXFP1 Hu cAMP. Type of series: cell-based. In outline:
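CHO-K1 (Jump-In T-REx), RXFP1 induced w/ 10 ng/ml doxycycline 24 h, cryopreserved. 0.5 mM IBMX final. cAMP by HTRF, 2 h RT, std curve.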

Broadly, the solubility is the dissolved amount per volume that the medium holds. By microsomal CLint is commonly meant the capacity of the preparation to metabolise the compound, expressed as a volume cleared per time. The hepatocyte CLint is a measure of how fast metabolising enzymes remove a compound, apart from limits set by blood flow. Regarding `COc1cc(F)c(O[C@H]2CC[C@@](C)(C(=O)O)CC2)cc1C(=O)N[C@@H]1[C@H]2CC[C@H](C2)[C@@H]1C(=O)N[C@@H](C)C(C)(C)C` [Example 45], the solubility in series [1] came out at 960 µM (≈ 525 µg/mL). For the same molecule, the “Test B Human Plasma Protein Binding (% free)” value in series [2] is listed as 6.9 % free. The molecule further showed a microsomal CLint in series [3] of 15 µL/min/mg. The hepatocyte CLint in series [4] amounted to 12 µL/min/1e6 cells.

Molecule `COc1cc(F)c(C[C@H]2CC[C@@](C)(C(=O)O)CC2)cc1C(=O)N[C@@H]1[C@H]2CC[C@H](C2)[C@@H]1C(=O)NCC1(C)CCC1` [Example 204, (1S,4s)-4-(2-fluoro-4-methoxy-5-(((1S,2R,3S,4R)-3-(((1-methylcyclobutyl)methyl)carbamoyl)bicyclo[2.2.1]heptan-2-yl)carbamoyl)benzyl)-1-methylcyclohexane-1-carboxylic acid] registered a solubility in series [1] of 61 µM (≈ 33.1 µg/mL). In series [2], the “Test B Human Plasma Protein Binding (% free)” value turned out to be 0.29 % free. In series [3], this molecule returned a microsomal CLint of 78 µL/min/mg. This molecule also showed a hepatocyte CLint in series [4] of 18 µL/min/1e6 cells.

In series [1], `COc1cc(F)c(O[C@H]2CC[C@@](C)(C(=O)O)CC2)cc1C(=O)N[C@@H]1[C@H]2CC[C@H](C2)[C@@H]1C(=O)NCC1(C)CCC1` [Example 1, (1S,4s)-4-(2-Fluoro-4-methoxy-5-(((1S,2R,3S,4R)-3-(((1-methylcyclobutyl)methyl)carbamoyl)bicyclo[2.2.1]heptan-2-yl)carbamoyl)phenoxy)-1-methylcyclohexane-1-carboxylic acid] had a solubility of over 500 µM. Moreover, the “Test B Human Plasma Protein Binding (% free)” value in series [2] was 4.3 % free.

For the molecule `COc1cc(F)c(CC2CCC(C)(C(=O)O)CC2)cc1C(=O)NC1C2CCC(C2)C1C(=O)NCC1(C)CCC1` [Example 205, (1R,4r)-4-(2-fluoro-4-methoxy-5-(((1S,2R,3S,4R)-3-(((1-methylcyclobutyl)methyl)carbamoyl)bicyclo[2.2.1]heptan-2-yl)carbamoyl)benzyl)-1-methylcyclohexane-1-carboxylic acid], the solubility in series [1] was 180 µM (≈ 97.7 µg/mL). The “Test B Human Plasma Protein Binding (% free)” value in series [2] came out at 0.58 % free. Besides, in series [3], the microsomal CLint came to 49 µL/min/mg. Also, the hepatocyte CLint in series [4] came to 26 µL/min/1e6 cells.

In turn, `COc1cc(F)c(O[C@H]2CC[C@@](C)(C(=O)O)CC2)cc1C(=O)N[C@H]1[C@@H]2CC[C@@H](C2)[C@H]1C(=O)NCC1(C)CCC1` [Example 3, (1R,4s)-4-(2-Fluoro-4-methoxy-5-(((1R,2S,3R,4S)-3-(((1-methylcyclobutyl)methyl)carbamoyl)bicyclo[2.2.1]heptan-2-yl)carbamoyl)phenoxy)-1-methylcyclohexane-1-carboxylic acid] came in with a solubility in series [1] of 860 µM (≈ 468 µg/mL). In series [2], the “Test B Human Plasma Protein Binding (% free)” value was found to be 3.7 % free.

In series [1], `COc1cc(F)c(O[C@H]2C[C@@](C)(C(=O)O)C2)cc1C(=O)N[C@@H]1[C@H]2CC[C@H](C2)[C@@H]1C(=O)NCC1(C)CCC1` [Example 149, (1S,3s)-3-(2-fluoro-4-methoxy-5-(((1S,2R,3S,4R)-3-(((1-methylcyclobutyl)methyl)carbamoyl)bicyclo[2.2.1]heptan-2-yl)carbamoyl)phenoxy)-1-methylcyclobutane-1-carboxylic acid] came in with a solubility of 840 µM (≈ 434 µg/mL). Besides, the “Test B Human Plasma Protein Binding (% free)” value in series [2] came out at 11 % free. Moreover, in series [3], the intrinsic clearance (microsomal CLint) was determined as 7.6 µL/min/mg. The molecule also registered a hepatocyte CLint in series [4] of 11 µL/min/1e6 cells.

One may read the EC50 as the concentration giving half of the maximal effect. In the case of `COc1cc(F)c(-c2ccc(CCC(=O)O)cc2)cc1C(=O)N[C@@H]1[C@H]2CC[C@H](C2)[C@@H]1C(=O)Nc1cccc(S(=O)(=O)C(F)(F)F)c1` [Example 244], the solubility in series [1] came to 240 µM (≈ 159 µg/mL). In addition, in series [5], the “Test A Sinf” value came to 111%. The EC50 in series [5] (read-out: Test A EC50) amounted to 100 nM. The microsomal CLint in series [3] was 53 µL/min/mg. Further, the hepatocyte CLint in series [4] was 36 µL/min/1e6 cells.
